Test results as given in patent US20260355184A1, “SMALL MOLECULE DEGRADERS OF HIV-1 TAT PROTEIN” (priority 2022, published 2026).
“Also recorded” adds a separate entry of the source.

Key:
HeLa-CD4-LTR-LacZ cells = assay: Cytotoxicity assay, Cell-Titer-Glo, HeLa-CD4-LTR-LacZ; settings: Cell-Titer-Glo in parallel to infectivity assay
Outline: (§1)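 HeLa-CD4-LTR-LacZ reporter cells (β-Gal under HIV 5′ LTR) infected with HIV NL4.3; β-Gal activity read 72 h post infection, with parallel Cell-Titer-Glo viability. OM10.1 carry a single wild-type provirus; ACH-2 a single provirus with TAR C37T mutation, defective Tat-TAR feedback.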

[1] = as above; settings: human, hela-cd4-ltr-lacz cells, Infectivity CC50, HeLa-CD4-LTR-LacZ
Outline: as §1

GFP = assay: Degradation assay control: GFP in HEK293T cells, western blot; format: cell-based
Procedure: (§2) Next, the effect of the three leads on the alteration of Tat steady state levels was assessed. Tat expression from an integrated provirus, or from HIV acute infection is generally too low to be detected by western blot. Furthermore, antibodies against Tat are known for their lack of avidity. Tat degradation was thus assessed upon transfection. Flag-Tat or Flag-GFP were individually transfected into HEK293T and 24 hrs later, TT-44856, TT-44863 or TT-44881 were added to the culture, followed by Western blot 24 hrs later (dubbed “degradation assay”) (FIG. 5A). […] Finally, the leads' impact on recombinant Tat protein in HEK293T cells was assessed (FIG. 5D). HEK293T cells were incubated with recombinant Tat for 4 hrs to allow Tat internalization, followed by several thorough washes to remove unincorporated Tat. Cells were then incubated with all three leads (or Triptolide) for an additional 2 hrs. Cells were lysed and analyzed by western blot with an anti-Tat serum.

Flag-Tat = biological target: T1, Flag-Tat (Human immunodeficiency virus type 1 (HXB3 ISOLATE), UniProt P69698); assay: Degradation assay: Flag-Tat in HEK293T cells, western blot; format: cell-based, HIV; settings: for effect of chloroquine or NH4Cl on compound induced Flag-Tat degradation: Chloroquine 100 μM or NH4Cl 50 mM, 8 hrs; for Flag-Tat degradation / steady state: western blot; for effect of Lenalidomide on compound induced Flag-Tat degradation: Lenalidomide 40 μM, 4 hrs; for effect of MG132 on compound induced Flag-Tat degradation: MG132 20 μM, 17 hrs
T1 construct: Tat 86 aa likely (9 lysines)
T1 sequence (P69698 whole entry): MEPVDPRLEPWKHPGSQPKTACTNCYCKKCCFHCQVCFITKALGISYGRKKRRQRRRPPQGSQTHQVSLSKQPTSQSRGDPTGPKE
Procedure: Next, the effect of the three leads on the alteration of Tat steady state levels was assessed. Tat expression from an integrated provirus, or from HIV acute infection is generally too low to be detected by western blot. Furthermore, antibodies against Tat are known for their lack of avidity. Tat degradation was thus assessed upon transfection. Flag-Tat or Flag-GFP were individually transfected into HEK293T and 24 hrs later, TT-44856, TT-44863 or TT-44881 were added to the culture, followed by Western blot 24 hrs later (dubbed “degradation assay”) (FIG. 5A). […] These cells were treated with TNFα (previously determined not be degraded by the three leads in FIG. 2D) in the presence of TT-44856, TT-44863 or TT-44881, followed by western blot with an anti-Flag antibody 17 hrs later. […] Finally, the leads' impact on recombinant Tat protein in HEK293T cells was assessed (FIG. 5D). HEK293T cells were incubated with recombinant Tat for 4 hrs to allow Tat internalization, followed by several thorough washes to remove unincorporated Tat. Cells were then incubated with all three leads (or Triptolide) for an additional 2 hrs. Cells were lysed and analyzed by western blot with an anti-Tat serum.
Degradation of Tat has been reported in the literature in multiple ways, including the lysosomal pathway^23, the ubiquitin-independent 20S proteasomal pathway (due to its unfolded structure)^24,25, and the ubiquitin-dependent 26S proteasomal pathway^26. It was first assessed whether Tat was targeted to the lysosomal pathway by the lead compounds. HEK293T cells were transfected with Flag-Tat for 24 hrs, incubated with the compounds for an additional 24 hrs, then treated for 8 hrs with either 100 μM chloroquine or 50 mM NH4Cl, both known to inhibit lysosomal hydrolases by reducing acidification. […] Both the 20S and the 26S proteasomal pathways were next investigated using MG132, an inhibitor of the catalytic […] of 20S present in both pathways^27. The degradation assay was carried out as above, but compounds were simultaneously incubated with MG132 20 μM or DMSO for 17 hrs followed by western blot. In the presence of MG132, Tat degradation was rescued, but the rescue was higher in the presence of the lead compounds (FIG. 6B).
Protein ubiquitination occurs by sequential recruitment of ubiquitin-activating enzyme E1, ubiquitin-conjugating enzyme E2, and ubiquitin ligase E3 (using ubiquitin, substrate protein, and ATP). The selectivity in protein ubiquitination is conferred by E3 ubiquitin ligases that recognize the substrate proteins^29 and the human genome contains more than 600 E3 ubiquitin ligases^29. To determine whether the small molecule leads trigger the 20S or the 26S proteasomal pathways, the Tat degradation assay was performed in the presence of commercially available E3 ligase inhibitors, including Lenalidomide a E3 ubiquitin ligase Cereblon inhibitor. Cereblon has not been previously reported to ubiquitinate Tat. The degradation assays were performed as above with Lenalidomide (40 μM) or DMSO incubation for 4 hrs in the presence of the lead molecules (FIG. 7A). […] To confirm the engagement of Cereblon in the mechanism of action of the lead compounds, shRNAs were used to stably knock down Cerebelon, or CD8 control, in HEK293T cells, and the degradation assay for TT-44856 was performed.
The involvement of the ubiquitous VHL E3 ligase in the activity of TT-44881 inducing Tat degradation was also investigated. HEK293T cells overexpressing Tat protein and VHL siRNAs (or si control) were treated with either TT-44881 (60 μM) and DMSO or TT-44881 with a VHL PROTAC (CM11, 500 nM) for 24 hours. siRNAs and PROTACs were used together to maximize the depletion of both VHL isoforms (30 and 19 kDa).

recombinant Tat = biological target: T2, recombinant Tat (Human immunodeficiency virus type 1 (HXB3 ISOLATE), UniProt P69698); assay: Recombinant Tat stability in HEK293T cells, western blot; format: cell-based, HIV; settings: 4 hrs recombinant Tat then 2 hrs compound, n=1
T2 construct: detected with anti-Tat serum
T2 sequence (P69698 whole entry): as above
Procedure: as §2

SMILES | toxicity (HeLa-CD4-LTR-LacZ cells) | CC50 ([1]; analogs of TT-44856 (Table 3)) [µM] | effect on GFP expression (GFP) | effect of chloroquine or NH4Cl on compound induced Flag-Tat degradation (Flag-Tat; n=1) | Flag-Tat degradation / steady state (Flag-Tat; HEK293T) | effect of Lenalidomide on compound induced Flag-Tat degradation (Flag-Tat) | effect of MG132 on compound induced Flag-Tat degradation (Flag-Tat) | Flag-Tat degradation upon Cereblon knockdown (Flag-Tat; shRNA Cereblon, HEK293T, TT-44856 40 μM, n=1) | recombinant Tat degradation (recombinant Tat) | CC50 ([1]; analogs of TT-44863 (Table 2)) [µM] | CC50 ([1]; analogs of TT-44881 (Table 1)) [µM] | Tat degradation upon VHL depletion (Flag-Tat; VHL siRNA and VHL PROTAC CM11 500 nM, 24 hours, TT-44881 60 μM)
CC(C(=O)NCCCn1ccnc1)(c1ccccc1)c1ccccc1 [TT-44856] | without signs of toxicity | > 100 | did not affect GFP expression | do not prevent lead hits induced Flag-Tat degradation | Tat protein degradation was observed | prevents Tat compounds induced Flag-Tat degradation | prevents lead hits induced Flag-Tat degradation | no longer engaging Flag-Tat for degradation; also recorded: diminishes TT-44856 induced Flag-Tat degradation | degraded Tat as opposed to the DMSO control | – | – | –
COCCOc1ccc(C(F)(F)F)cc1NC(=O)Cn1cc(C(F)(F)F)cc(Cl)c1=O [TT-44863] | without signs of toxicity | – | did not affect GFP expression | do not prevent lead hits induced Flag-Tat degradation | Tat protein degradation was observed | prevents Tat compounds induced Flag-Tat degradation | prevents lead hits induced Flag-Tat degradation | – | degraded Tat as opposed to the DMSO control | > 800 | – | –
O=C(CCCCN1CCCC1=O)c1nn(-c2ccccc2)c2c1CCC2 [TT-44881] | without signs of toxicity | – | did not affect GFP expression | do not prevent lead hits induced Flag-Tat degradation | Tat protein degradation was observed | prevents Tat compounds induced Flag-Tat degradation | prevents lead hits induced Flag-Tat degradation | – | degraded Tat as opposed to the DMSO control | – | > 100 | no longer depleted
